Molecular target: ROCK2 (Homo sapiens, UniProt O75116)
Assay: ROCK2 kinase inhibition assay (Caliper LABCHIP, FITC peptide substrate)
Type: biochemical
Conditions: 5 μM ATP, 1.5 μM peptide substrate; value ranges
Method in brief: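 Rho kinase with 5 μM ATP and 1.5 μM FITC-AHA-AKRRRLSSLRA-OH peptide in HEPES pH 7.5, 20 mM MgCl2, 0.015% Brij-35, 4 mM DTT, DMSO <2%. EDTA stop; phospho and non-phospho peptide separated on LabChip. IC50 from dose-response fit.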

ROCK2, sequence (O75116 whole entry, species assumed): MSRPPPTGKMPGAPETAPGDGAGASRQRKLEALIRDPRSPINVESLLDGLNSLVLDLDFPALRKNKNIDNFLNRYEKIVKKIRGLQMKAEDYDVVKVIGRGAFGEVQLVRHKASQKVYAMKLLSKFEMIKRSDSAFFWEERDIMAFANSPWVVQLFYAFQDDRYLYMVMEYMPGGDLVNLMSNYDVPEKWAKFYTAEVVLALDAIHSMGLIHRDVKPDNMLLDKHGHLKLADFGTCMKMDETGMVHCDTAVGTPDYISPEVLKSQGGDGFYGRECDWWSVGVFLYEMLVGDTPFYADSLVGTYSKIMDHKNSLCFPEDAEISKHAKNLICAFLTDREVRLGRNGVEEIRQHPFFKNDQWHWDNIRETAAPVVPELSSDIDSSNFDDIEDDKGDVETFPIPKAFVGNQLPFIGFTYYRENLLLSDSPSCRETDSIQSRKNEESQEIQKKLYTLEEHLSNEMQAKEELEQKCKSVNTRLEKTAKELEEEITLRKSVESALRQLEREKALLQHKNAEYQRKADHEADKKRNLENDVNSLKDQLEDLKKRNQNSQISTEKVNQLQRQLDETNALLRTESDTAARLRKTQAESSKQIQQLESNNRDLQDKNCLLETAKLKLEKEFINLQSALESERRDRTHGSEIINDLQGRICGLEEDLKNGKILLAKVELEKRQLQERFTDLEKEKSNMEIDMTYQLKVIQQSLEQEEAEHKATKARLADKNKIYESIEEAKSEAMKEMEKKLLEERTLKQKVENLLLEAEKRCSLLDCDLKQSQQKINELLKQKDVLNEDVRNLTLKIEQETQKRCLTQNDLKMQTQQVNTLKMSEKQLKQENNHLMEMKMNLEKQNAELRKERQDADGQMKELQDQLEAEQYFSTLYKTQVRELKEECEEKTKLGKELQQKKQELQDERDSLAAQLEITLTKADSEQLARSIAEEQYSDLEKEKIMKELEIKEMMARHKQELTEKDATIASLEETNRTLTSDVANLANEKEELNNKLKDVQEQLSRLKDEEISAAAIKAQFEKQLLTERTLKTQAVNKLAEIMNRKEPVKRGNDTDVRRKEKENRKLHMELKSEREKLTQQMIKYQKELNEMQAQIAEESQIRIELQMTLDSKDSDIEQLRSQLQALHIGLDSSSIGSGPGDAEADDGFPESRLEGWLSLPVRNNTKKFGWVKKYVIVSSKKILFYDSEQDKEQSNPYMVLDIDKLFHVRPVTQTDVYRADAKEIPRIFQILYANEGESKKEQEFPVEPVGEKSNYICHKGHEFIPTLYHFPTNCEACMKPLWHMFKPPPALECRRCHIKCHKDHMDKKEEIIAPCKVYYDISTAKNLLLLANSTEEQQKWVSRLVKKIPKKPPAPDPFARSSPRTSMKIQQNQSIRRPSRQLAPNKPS

Row | IC50 | SMILES
1 | 20.1 to 200 nM | COc1cc(C(C)n2ccn(-c3ccc(-c4cn[nH]c4)c(OC)n3)c2=O)ccc1F (single isomer, unassigned) [Example 390, 1-(1-(4-fluoro-3-methoxyphenyl)ethyl)-3-(6-methoxy-5-(1H-pyrazol-4-yl)pyridin-2-yl)-1H-imidazol-2(3H)-one]
2 | 2.1 to 20 nM | COc1cc(C(C)n2ccn(-c3ccc(-c4cn[nH]c4)cc3)c2=O)ccc1F (single isomer, unassigned) [Example 391, 1-(4-(1H-pyrazol-4-yl)phenyl)-3-(1-(4-fluoro-3-methoxyphenyl)ethyl)-1H-imidazol-2(3H)-one]
3 | 200 to 2000 nM | COc1cc(C(C)n2ccn(-c3ccc(-c4cn[nH]c4)cc3)c2=O)ccc1F (single isomer, unassigned) [Example 392, 1-(4-(1H-pyrazol-4-yl)phenyl)-3-(1-(4-fluoro-3-methoxyphenyl)ethyl)-1H-imidazol-2(3H)-one]
4 | 2.1 to 20 nM | COc1cc(F)cc(C(C)n2ccn(-c3ccc(-c4cn[nH]c4)cn3)c2=O)c1 (single isomer, unassigned) [Example 393, 1-(5-(1H-pyrazol-4-yl)pyridin-2-yl)-3-(1-(3-fluoro-5-methoxyphenyl)ethyl)-1H-imidazol-2(3H)-one]
5 | 20.1 to 200 nM | COc1cc(F)cc(C(C)n2ccn(-c3ccc(-c4cn[nH]c4)cn3)c2=O)c1 (single isomer, unassigned) [Example 394, 1-(5-(1H-pyrazol-4-yl)pyridin-2-yl)-3-(1-(3-fluoro-5-methoxyphenyl)ethyl)-1H-imidazol-2(3H)-one]
6 | < 2 nM | COc1cc(F)cc(C(C)n2ccn(-c3ccc(-c4cn[nH]c4)c(OC)n3)c2=O)c1 (single isomer, unassigned) [Example 397, 1-(1-(3-fluoro-5-methoxyphenyl)ethyl)-3-(6-methoxy-5-(1H-pyrazol-4-yl)pyridin-2-yl)-1H-imidazol-2(3H)-one]
7 | 2.1 to 20 nM | COc1cc(F)cc(C(C)n2ccn(-c3ccc(-c4cn[nH]c4)c(OC)n3)c2=O)c1 (single isomer, unassigned) [Example 398, 1-(1-(3-fluoro-5-methoxyphenyl)ethyl)-3-(6-methoxy-5-(1H-pyrazol-4-yl)pyridin-2-yl)-1H-imidazol-2(3H)-one]
8 | 2.1 to 20 nM | COc1cccc(C(C)n2ccn(-c3ccc(-c4ccnc(N)n4)cc3)c2=O)c1 (single isomer, unassigned) [Example 399, 1-(4-(2-aminopyrimidin-4-yl)phenyl)-3-(1-(3-methoxyphenyl)ethyl)-1H-imidazol-2(3H)-one]
9 | < 2 nM | COc1cccc(C(C)n2ccn(-c3ccc(-c4cn[nH]c4)c(OC)n3)c2=O)c1 (single isomer, unassigned) [Example 400, 1-(6-methoxy-5-(1H-pyrazol-4-yl)pyridin-2-yl)-3-(1-(3-methoxyphenyl)ethyl)-1H-imidazol-2(3H)-one]
10 | 2.1 to 20 nM | COc1cccc(C(C)n2ccn(-c3ccc(-c4cn[nH]c4)c(OC)n3)c2=O)c1 (single isomer, unassigned) [Example 401, 1-(6-methoxy-5-(1H-pyrazol-4-yl)pyridin-2-yl)-3-(1-(3-methoxyphenyl)ethyl)-1H-imidazol-2(3H)-one]
11 | 20.1 to 200 nM | COc1cccc(C(C)N2CCN(c3ccc(-c4cn[nH]c4)cn3)C2=O)c1 (single isomer, unassigned) [Example 459, 1-(5-(1H-pyrazol-4-yl)pyridin-2-yl)-3-(1-(3-methoxyphenyl)ethyl)imidazolidin-2-one]
12 | < 2 nM | COc1cccc(C(C)N2CCN(c3ccc(-c4cn[nH]c4)cn3)C2=O)c1 (single isomer, unassigned) [Example 460, 1-(5-(1H-pyrazol-4-yl)pyridin-2-yl)-3-(1-(3-methoxyphenyl)ethyl)imidazolidin-2-one]
13 | < 2 nM | COc1cccc(C(CO)N2CCN(c3ccc(-c4cn[nH]c4)cn3)C2=O)c1 (single isomer, unassigned) [Example 461, 1-(5-(1H-pyrazol-4-yl)pyridin-2-yl)-3-(2-hydroxy-1-(3-methoxyphenyl)ethyl)imidazolidin-2-one]

Reference: patent publication US10123993B2, “Cyclic ureas as inhibitors of rock” (BRISTOL-MYERS SQUIBB COMPANY, priority 2015, dated 2018)
